BindingDB's records for doi:10.7270/Q25B013C (The Scripps Research Institute Molecular Screening Center, 2014)

molecular target: T1, Disintegrin and metalloproteinase domain-containing protein 10 (Homo sapiens, UniProt O14672); assay: inhibition of ADAM10 peptide cleavage – biochemical, FRET peptide substrate, recombinant human ADAM10, selectivity assay for ADAM17 exosite inhibitor project, dose response (AID 743259)
T1 sequence (O14672 whole entry): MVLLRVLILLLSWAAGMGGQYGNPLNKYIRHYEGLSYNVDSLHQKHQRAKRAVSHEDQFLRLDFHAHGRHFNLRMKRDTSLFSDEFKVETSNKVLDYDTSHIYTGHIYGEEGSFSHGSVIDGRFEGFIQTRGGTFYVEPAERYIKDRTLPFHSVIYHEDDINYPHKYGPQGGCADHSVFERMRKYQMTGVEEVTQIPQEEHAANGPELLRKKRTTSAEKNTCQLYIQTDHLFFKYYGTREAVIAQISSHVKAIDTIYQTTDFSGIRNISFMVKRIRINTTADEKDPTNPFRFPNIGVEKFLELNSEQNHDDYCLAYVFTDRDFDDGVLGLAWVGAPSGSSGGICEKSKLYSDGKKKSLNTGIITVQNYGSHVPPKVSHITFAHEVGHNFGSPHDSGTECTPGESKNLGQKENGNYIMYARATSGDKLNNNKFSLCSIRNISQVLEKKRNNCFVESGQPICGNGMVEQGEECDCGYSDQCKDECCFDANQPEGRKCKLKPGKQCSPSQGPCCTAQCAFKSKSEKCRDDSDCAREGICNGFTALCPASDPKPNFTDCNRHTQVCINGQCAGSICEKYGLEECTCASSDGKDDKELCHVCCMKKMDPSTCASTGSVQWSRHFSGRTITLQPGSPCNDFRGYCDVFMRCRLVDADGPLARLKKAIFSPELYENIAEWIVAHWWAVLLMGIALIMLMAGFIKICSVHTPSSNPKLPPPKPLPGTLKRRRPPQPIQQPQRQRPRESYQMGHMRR

`CCOc1ccc(NC(=O)Cc2sc(=O)n(-c3ccccc3)c2O)cc1` and `O=C(Cc1sc(=O)n(-c2ccccc2)c1O)Nc1ccccc1` [2-(2,4-diketo-3-phenyl-thiazolidin-5-yl)-N-phenyl-acetamide] are within 1.5-fold of each other in IC50: 37.7 µM for the first, 47.8 µM for the second.

First: Cn1c(-c2sccc2OCc2ccc(Cl)cc2Cl)n[nH]c1=S
Second: COC(=O)c1cccc(Cn2c(Cl)c(CN=Nc3ccccc3C)sc2=O)c1 [methyl 3-[[4-chloro-5-[[(2-methylphenyl)hydrazinylidene]methyl]-2-oxo-1,3-thiazol-3-yl]methyl]benzoate]
The IC50 of the first is 6.3-fold lower: 11.1 µM for the first, 69.5 µM for the second. The first is the more potent here.

`COc1cccc(C2c3oc(CO)cc(=O)c3OC(=N)C2C#N)c1` (configuration not stated) [2-Amino-6-hydroxymethyl-4-(3-methoxy-phenyl)-8-oxo-4,8-dihydro-pyrano[3,2-b]pyran-3-carbonitrile] and `COc1ccc(NC(=O)c2oc3ccccc3c2NC(=O)C(C)(C)C)cc1` [3-(2,2-dimethylpropanoylamino)-N-(4-methoxyphenyl)-1-benzofuran-2-carboxamide] are the same in IC50: 69.5 µM for the first, 69.5 µM for the second.

First: CCOc1cc(C(c2c(C)[nH][nH]c2=O)c2c(C)[nH][nH]c2=O)ccc1O [4-[(3-ethoxy-4-hydroxyphenyl)-(3-methyl-5-oxo-1,2-dihydropyrazol-4-yl)methyl]-5-methyl-1,2-dihydropyrazol-3-one]
Second: Cc1cccc(NNC2=c3cc(Br)ccc3=NC2=O)c1 [5-bromo-3-[2-(3-methylphenyl)hydrazinyl]indol-2-one]
The IC50 of the first is 27-fold lower: 2.58 µM for the first, 69.5 µM for the second.

First: CC1CCCN(CCCNC(=O)c2coc3nc4ccccc4nc23)C1 (configuration not stated) [MLS000046706]
Second: CC(=NNC(=N)Sc1cc(O)n(-c2ccccc2)c1O)c1cccs1 [[2,5-bis(oxidanylidene)-1-phenyl-pyrrolidin-3-yl] N'-[(E)-1-thiophen-2-ylethylideneamino]carbamimidothioate]
The IC50 of the first is 2.9-fold higher: 28.5 µM for the first, 9.95 µM for the second. The second is the more potent here.

First: O=C1OCCN1C(=O)C1=[N+](c2ccc(Br)cc2)N[C-](c2ccccc2)[C@H]1c1ccc([N+](=O)[O-])cc1 [SMR000327268]
Second: CC(=NNC(=N)Sc1cc(O)n(-c2ccc(Br)cc2)c1O)c1cccs1 [[1-(4-bromophenyl)-2,5-bis(oxidanylidene)pyrrolidin-3-yl] N''-(1-thiophen-2-ylethylideneamino)carbamimidothioate]
The IC50 of the first is 2.1-fold higher: 69.5 µM for the first, 32.5 µM for the second. The second is the more potent here.
